This is an account of results in ChEMBL document CHEMBL2057118, “Synthesis and biological evaluation of novel 2,4,6-triazine derivatives as antimicrobial agents” (2012).

The structures appear in SMILES notation.

Type in all cases: functional
Assay [1] relates to Escherichia coli. The assay can be described thus: Antimicrobial activity against Escherichia coli MTCC 1650 after 24 hrs by agar well diffusion method. To be noted: for MIC: Escherichia coli, MTCC 1650, 24 h.
In assay [2] the test system is Aspergillus niger. The assay can be described thus: Antifungal activity against Aspergillus niger MTCC 1781 after 2 to 3 days by agar well diffusion method. To be noted: for MIC: Aspergillus niger, MTCC 1781. (In agar diffusion tests the substance spreads into inoculated agar from a disc or well.)
For assay [3], the system named is Staphylococcus aureus. Briefly: Antimicrobial activity against Staphylococcus aureus MTCC 96 after 24 hrs by agar well diffusion method. To be noted: for MIC: Staphylococcus aureus, MTCC 96, 24 h.
For assay [4], the system named is Pseudomonas aeruginosa. Briefly: Antimicrobial activity against Pseudomonas aeruginosa MTCC 1688 after 24 hrs by agar well diffusion method. To be noted: for MIC: Pseudomonas aeruginosa, MTCC 1688, 24 h.
For assay [5], the system named is Bacillus subtilis. The assay can be described thus: Antimicrobial activity against Bacillus subtilis MTCC 441 after 24 hrs by agar well diffusion method. As to conditions: for MIC: Bacillus subtilis, MTCC 441, 24 h.
Assay [6] relates to Candida albicans. The assay can be described thus: Antifungal activity against Candida albicans MTCC 227 after 2 to 3 days by agar well diffusion method. To be noted: for MIC: Candida albicans, MTCC 227.

The term MIC denotes the smallest concentration in the dilution series that meets the test's criterion for growth inhibition. Take `Cl.N#Cc1ccc(Nc2nc(N3CCN(c4ccccc4)CC3)nc(N3CCN(c4ccccc4)CC3)n2)cn1`: the “inhibition zone (IZ)” value in assay [1] is recorded as 12 mm; in assay [2], 14 mm; in assay [3] it was 12 mm; in assay [4] it was 10 mm; in assay [5] it was 10 mm; in assay [6], 14 mm. The MIC in assay [1] amounted to 6.25 mg/L; in assay [2] it was 25 mg/L; in assay [3] it was 6.25 mg/L; in assay [4] it was 6.25 mg/L; in assay [5], 6.25 mg/L; in assay [6], 25 mg/L.
As to `Cl.N#Cc1ccc(Nc2nc(N3CCN(C(=O)c4ccccc4)CC3)nc(N3CCN(C(=O)c4ccccc4)CC3)n2)cn1`, the “inhibition zone (IZ)” value in assay [1] is listed as 12 mm; in assay [2], 12 mm; in assay [3], 12 mm; in assay [4], 14 mm; in assay [5], 10 mm; in assay [6], 14 mm. Further, the minimum inhibitory concentration (MIC) in assay [1] was 25 mg/L; in assay [2] it was 50 mg/L; in assay [3], 12.5 mg/L; in assay [4] it was 25 mg/L; in assay [5], 12.5 mg/L; in assay [6], 50 mg/L.
On to `Cl.N#Cc1ccc(Nc2nc(Nc3ccc(F)cc3)nc(Nc3ccc(F)cc3)n2)cn1`, for which the “inhibition zone (IZ)” value in assay [1] came to 14 mm; in assay [2], 12 mm; in assay [3], 12 mm; in assay [4] it was 12 mm; in assay [5], 10 mm; in assay [6] it was 12 mm. In addition, the minimal inhibitory concentration (MIC) in assay [1] turned out to be 25 mg/L; in assay [2], 25 mg/L; in assay [3], 25 mg/L; in assay [4] it was 50 mg/L; in assay [5], 25 mg/L; in assay [6] it was 25 mg/L.
In the case of `Cl.N#Cc1ccc(Nc2nc(NCc3ccco3)nc(NCc3ccco3)n2)cn1`, the “inhibition zone (IZ)” value in assay [1] turned out to be 14 mm; in assay [2], 12 mm; in assay [3], 12 mm; in assay [4] it was 12 mm; in assay [5], 10 mm; in assay [6], 12 mm. The minimal inhibitory concentration (MIC) in assay [1] amounted to 6.25 mg/L; in assay [2], 12.5 mg/L; in assay [3] it was 6.25 mg/L; in assay [4], 6.25 mg/L; in assay [5], 6.25 mg/L; in assay [6], 12.5 mg/L.
In the case of `Cl.N#Cc1ccc(Nc2nc(N3CCCCC3)nc(N3CCCCC3)n2)cn1`, the “inhibition zone (IZ)” value in assay [1] is on record as 14 mm; in assay [2], 14 mm; in assay [3], 12 mm; in assay [4], 12 mm; in assay [5] it was 10 mm; in assay [6], 10 mm. The MIC in assay [1] was determined as 25 mg/L; in assay [2] it was 25 mg/L; in assay [3], 50 mg/L; in assay [4] it was 25 mg/L; in assay [5], 50 mg/L; in assay [6], 50 mg/L.
With `Cl.N#Cc1ccc(Nc2nc(NC3CCCCC3)nc(NC3CCCCC3)n2)cn1`, the “inhibition zone (IZ)” value in assay [1] is reported as 12 mm; in assay [2] it was 14 mm; in assay [3] it was 12 mm; in assay [4], 10 mm; in assay [5] it was 12 mm; in assay [6] it was 14 mm. Further, the MIC stood at 6.25 mg/L in assay [1]; 12.5 mg/L in assay [2]; 6.25 mg/L in assay [3]; 6.25 mg/L in assay [4]; 6.25 mg/L in assay [5]; 12.5 mg/L in assay [6].
Take `Cl.N#Cc1ccc(Nc2nc(N3CCOCC3)nc(N3CCOCC3)n2)cn1`: the “inhibition zone (IZ)” value in assay [1] stood at 12 mm; in assay [2], 14 mm; in assay [3], 12 mm; in assay [4], 10 mm; in assay [5], 12 mm; in assay [6] it was 14 mm. Besides, the MIC in assay [1] is 50 mg/L; in assay [2] it was 100 mg/L; in assay [3], 50 mg/L; in assay [4] it was 50 mg/L; in assay [5] it was 50 mg/L; in assay [6], 50 mg/L.
`Cl.N#Cc1ccc(Nc2nc(N3CCCC3)nc(N3CCCC3)n2)cn1`: the “inhibition zone (IZ)” value in assay [1] is given as 12 mm; in assay [2], 14 mm; in assay [3] it was 12 mm; in assay [4], 12 mm; in assay [5] it was 12 mm; in assay [6], 12 mm. Also, the MIC in assay [1] turned out to be 50 mg/L; in assay [2], 50 mg/L; in assay [3] it was 100 mg/L; in assay [4], 100 mg/L; in assay [5] it was 100 mg/L; in assay [6], 50 mg/L.
Take `CN1CCN(c2nc(Nc3ccc(C#N)nc3)nc(N3CCN(C)CC3)n2)CC1.Cl`: the “inhibition zone (IZ)” value in assay [1] was found to be 12 mm; in assay [2], 12 mm; in assay [3], 12 mm; in assay [4], 10 mm; in assay [5] it was 12 mm; in assay [6], 10 mm. The MIC is 12.5 mg/L in assay [1]; 50 mg/L in assay [2]; 12.5 mg/L in assay [3]; 12.5 mg/L in assay [4]; 12.5 mg/L in assay [5]; 50 mg/L in assay [6].
Consider `COc1cccc(Nc2nc(Nc3ccc(C#N)nc3)nc(Nc3cccc(OC)c3)n2)c1.Cl`, for which the “inhibition zone (IZ)” value in assay [1] is recorded as 14 mm; in assay [2], 12 mm; in assay [3] it was 12 mm; in assay [4] it was 12 mm; in assay [5], 10 mm; in assay [6], 12 mm. Moreover, the minimal inhibitory concentration (MIC) in assay [1] stood at 6.25 mg/L; in assay [2] it was 25 mg/L; in assay [3], 6.25 mg/L; in assay [4], 12.5 mg/L; in assay [5] it was 12.5 mg/L; in assay [6], 25 mg/L.
In the case of `Cl.N#Cc1ccc(Nc2nc(N3CCNCC3)nc(N3CCNCC3)n2)cn1`, the “inhibition zone (IZ)” value in assay [1] is given as 12 mm; in assay [2] it was 14 mm; in assay [3] it was 12 mm; in assay [4], 10 mm; in assay [5], 12 mm; in assay [6], 14 mm. Moreover, the MIC in assay [1] was determined as 50 mg/L; in assay [2] it was 100 mg/L; in assay [3], 50 mg/L; in assay [4], 50 mg/L; in assay [5] it was 50 mg/L; in assay [6], 25 mg/L.
As for `Cl.N#Cc1ccc(Nc2nc(NCCN3CCOCC3)nc(NCCN3CCOCC3)n2)cn1`, the “inhibition zone (IZ)” value in assay [1] turned out to be 14 mm; in assay [2] it was 14 mm; in assay [3] it was 12 mm; in assay [4], 12 mm; in assay [5], 10 mm; in assay [6], 12 mm. Further, the MIC in assay [1] is 25 mg/L; in assay [2], 50 mg/L; in assay [3], 50 mg/L; in assay [4], 25 mg/L; in assay [5], 25 mg/L; in assay [6], 25 mg/L.
Take `Cl.N#Cc1ccc(Nc2nc(NC3CCCC3)nc(NC3CCCC3)n2)cn1`: the “inhibition zone (IZ)” value came out at 10 mm in assay [1]; 12 mm in assay [2]; 12 mm in assay [3]; 12 mm in assay [4]; 12 mm in assay [5]; 12 mm in assay [6]. Moreover, the MIC in assay [1] came to 6.25 mg/L; in assay [2], 25 mg/L; in assay [3], 6.25 mg/L; in assay [4], 12.5 mg/L; in assay [5], 6.25 mg/L; in assay [6] it was 25 mg/L.
